Like-named read-outs stand apart in the source and are kept apart here.
Key:
PDE4D3 = target: T1, PDE4D3 (Homo sapiens, UniProt Q08499); assay: PDE4 activity inhibition assay, PDE4D3; format: biochemical; details: FAM-cAMP substrate, 30 minutes at room temperature
T1 construct: purchased BPS 60046
Experimental: (§1) The IC50 value of the inhibitory effect of the compound on PDE4A1A, PDE4B1 and PDE4D3 was tested.
(§2) Positive compound: Trequinsin (Sigma, Cat. No. T2057).
(§3) Equipment: Wallac Victor Multi-label counter (Perkin Elmer).
(§4) I. Preparing 1× reaction liquid and termination liquid;
(§5) II. PDE enzymatic reaction; • 1) The PDE was dissolved in 1× reaction solution to form 2× enzyme solution. • 2) FAM-cAMP was dissolved in 1× reaction solution to form 2× substrate solution. • 3) Echo 550 was used to transfer the corresponding volume of the compound in DMSO solution to the reaction plate. • 4) 2× enzyme solution was added into the corresponding well of the reaction plate and incubated with the compound solution at room temperature for 15 minutes. • 5) 2× substrate solution was added into the corresponding well of the reaction plate to initiate the reaction. • 6) Reaction plate was incubated at room temperature for 30 minutes and terminated by adding termination liquid, then incubated at room temperature for 60 minutes.
(§6) The inhibition rate was calculated by Excel; IC50 was calculated by GraphPad Prism.

PDE4B1 = target: T2, PDE4B1 (Homo sapiens, UniProt Q07343); assay: PDE4 activity inhibition assay, PDE4B1; format: biochemical; details: FAM-cAMP substrate, 30 minutes at room temperature
T2 construct: purchased BPS 60041
Experimental: as §1, §2, §3, §4, §5, §6

PDE4A1A = target: T3, PDE4A1A (Homo sapiens, UniProt P27815); assay: PDE4 activity inhibition assay, PDE4A1A; format: biochemical; details: FAM-cAMP substrate, 30 minutes at room temperature
T3 construct: purchased BPS 60040
Experimental: as §1, §2, §3, §4, §5, §6

[1] = PK parameter test in SD rats; format: in vivo, Sprague-Dawley rats; details: male SD rats; for Tmax / AUC / half-life: Sprague-Dawley, rat, plasma; for F: po 10 mg/kg vs iv 3 mg/kg
Experimental: Test compounds were administered intravenously or intragastrically singly to SD rats.
Blood samples were collected at different time points. LC-MS/MS was used to determine the concentration of the test compounds in rat plasma after administration of tested compounds and calculate the relevant PK parameters.
The test compounds are calculated based on free radicals and are converted only by purity.
A suitable amount of the test compound was added 5% DMSO+95% HP-beta-CD (20%) to prepare a solution of 0.6 mg/mL for intravenous administration.
A suitable amount of the test compound was added 5% DMSO+95% HP-beta-CD (20%) to prepare a solution of 1 mg/mL for intragastrical administration.
Male Sprague-Dawley rats were purchased from Shanghai Xipuer-Bikai Laboratory Animal Co., Ltd. There were 3 rats in each group. One group was used as control to collect blank plasma. The other groups were given each test compound by intravenous injection (the dose was 3 mg/kg) or intragastrical administration (the dose was 10 mg/kg). Heparin sodium was used for anticoagulation. Analyze the concentration of the test compound in the blood sample.
Abrosia for 10-14 hours before oral administration of the test compounds and resume feeding 4 hours after oral administration of the test compounds.
The time points of blood sample collection were: intravenous injection: before administration and at 0.083 hour, 0.25 hour, 0.5 hour, 1 hour, 2 hour, 4 hour, 6 hour, 8 hour, 24 hour after administration; oral administration: before administration and at 0.25 hour, 0.5 hour, 1 hour, 2 hour, 4 hour, 6 hour, 8 hour, 24 hour after administration. Blood samples were collected through jugular vein puncture. About 0.25 mL blood was collected for each sample. Heparin sodium was used for anticoagulation and the samples were placed on ice after collection. Blood samples were placed on ice after collection, and plasma was separated by centrifugation (centrifugation condition: 8000 rpm, 6 min, 2-8° C.). The collected plasma was stored at −80° C. before analysis.
50 μL plasma sample was added into a 1.5 mL centrifugal tube, and 250 μL internal standard solution (the same volume of methanol was added to blank sample instead of internal standard) was added to the sample. The sample was mixed in a whirlpool and centrifuged for 5 minutes at 14000 rpm. The supernatant of 200 μL was added to 96-well plate for LC-MS/MS analysis.
The pharmacokinetic parameters of the test compounds were calculated using the non-compartment model of WinNonlin v5.2, a software for pharmacokinetic calculation, based on the data of plasma concentration.

[2] = po, intragastrical administration 10 mg/kg
[3] = po, intragastrical administration 10 mg/kg, read-out: AUC(po)
[4] = po, intragastrical administration 10 mg/kg, read-out: T1/2(po) (converted)
[5] = intravenous injection 3 mg/kg, read-out: AUC(iv)
[6] = intravenous injection 3 mg/kg, read-out: T1/2 (IV) (converted)

T3 sequence (P27815 1-647 isoform P27815-4): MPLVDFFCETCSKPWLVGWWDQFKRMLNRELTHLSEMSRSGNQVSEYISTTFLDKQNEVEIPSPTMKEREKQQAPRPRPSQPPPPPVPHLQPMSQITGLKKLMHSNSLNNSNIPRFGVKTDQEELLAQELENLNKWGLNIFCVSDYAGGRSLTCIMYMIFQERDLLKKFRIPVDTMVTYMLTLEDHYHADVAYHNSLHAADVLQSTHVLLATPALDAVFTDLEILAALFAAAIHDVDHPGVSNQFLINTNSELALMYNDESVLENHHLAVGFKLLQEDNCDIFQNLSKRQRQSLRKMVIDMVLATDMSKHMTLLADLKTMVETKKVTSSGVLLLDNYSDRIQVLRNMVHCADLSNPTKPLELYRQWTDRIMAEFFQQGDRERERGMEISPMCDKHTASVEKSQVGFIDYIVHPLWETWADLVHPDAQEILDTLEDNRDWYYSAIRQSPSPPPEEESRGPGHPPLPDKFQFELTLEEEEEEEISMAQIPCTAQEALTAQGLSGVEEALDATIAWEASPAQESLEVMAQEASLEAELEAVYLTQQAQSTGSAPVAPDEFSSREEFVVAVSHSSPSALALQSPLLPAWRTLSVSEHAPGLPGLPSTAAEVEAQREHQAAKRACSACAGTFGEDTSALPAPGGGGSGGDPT
T1 sequence (Q08499 1-673 isoform Q08499-2): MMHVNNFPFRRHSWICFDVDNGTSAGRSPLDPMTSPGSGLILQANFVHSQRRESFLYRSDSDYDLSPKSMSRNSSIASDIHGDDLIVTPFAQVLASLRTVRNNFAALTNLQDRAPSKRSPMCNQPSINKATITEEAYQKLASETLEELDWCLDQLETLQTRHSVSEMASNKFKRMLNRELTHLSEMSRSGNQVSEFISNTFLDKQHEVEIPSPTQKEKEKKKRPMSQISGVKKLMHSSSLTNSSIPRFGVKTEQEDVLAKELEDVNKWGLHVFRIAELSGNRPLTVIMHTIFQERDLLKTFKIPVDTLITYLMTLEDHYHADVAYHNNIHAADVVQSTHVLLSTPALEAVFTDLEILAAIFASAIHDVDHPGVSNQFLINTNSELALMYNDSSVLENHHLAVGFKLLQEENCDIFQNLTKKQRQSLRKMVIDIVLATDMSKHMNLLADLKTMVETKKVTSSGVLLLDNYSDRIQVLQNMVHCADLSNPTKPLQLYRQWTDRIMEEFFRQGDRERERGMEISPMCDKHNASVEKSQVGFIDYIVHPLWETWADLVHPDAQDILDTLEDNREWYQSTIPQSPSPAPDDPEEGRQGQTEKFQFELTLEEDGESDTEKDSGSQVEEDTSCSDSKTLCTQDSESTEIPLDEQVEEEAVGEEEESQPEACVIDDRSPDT
T2 sequence (Q07343 whole entry): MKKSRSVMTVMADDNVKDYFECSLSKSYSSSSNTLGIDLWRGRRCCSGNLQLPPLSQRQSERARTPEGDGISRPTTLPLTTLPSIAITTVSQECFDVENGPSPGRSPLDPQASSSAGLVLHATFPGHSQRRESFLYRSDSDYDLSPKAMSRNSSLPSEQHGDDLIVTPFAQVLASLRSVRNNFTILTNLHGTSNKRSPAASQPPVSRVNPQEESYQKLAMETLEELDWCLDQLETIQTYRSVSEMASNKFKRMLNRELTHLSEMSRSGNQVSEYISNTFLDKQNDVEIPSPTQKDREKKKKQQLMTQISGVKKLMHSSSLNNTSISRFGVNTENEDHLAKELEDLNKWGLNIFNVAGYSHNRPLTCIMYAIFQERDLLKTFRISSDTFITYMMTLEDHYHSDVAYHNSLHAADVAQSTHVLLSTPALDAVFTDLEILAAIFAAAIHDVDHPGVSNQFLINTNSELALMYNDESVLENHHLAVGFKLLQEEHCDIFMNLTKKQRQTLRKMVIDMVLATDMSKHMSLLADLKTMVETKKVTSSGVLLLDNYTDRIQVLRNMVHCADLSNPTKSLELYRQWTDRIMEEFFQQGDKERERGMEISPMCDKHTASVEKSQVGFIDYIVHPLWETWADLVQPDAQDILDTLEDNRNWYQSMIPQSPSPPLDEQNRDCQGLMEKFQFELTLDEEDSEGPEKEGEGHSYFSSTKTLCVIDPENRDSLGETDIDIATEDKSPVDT

Row | IC50 (PDE4D3) | IC50 (PDE4B1) | IC50 (PDE4A1A) | Tmax [1, 2] | AUC [1, 3] | half-life [1, 4] | AUC [1, 5] | half-life [1, 6] | F [1] | SMILES
1 | 3.7 nM | 12.8 nM | 7.25 nM | 120 min | 4120 ng·h/mL | 230 min | 1260 ng·h/mL | 63 min | 98.2 | [2H]C([2H])([2H])Oc1ccc([C@@H](CS(C)(=O)=O)N2C(=O)c3c(F)ccc(NC(C)=O)c3C2=O)cc1OCC [Compound 103, (S)—N-(2-(1-(3-ethoxy-4-d3-methoxyphenyl)-2-(methylsulfonyl)ethyl)-7-fluoro-1,3-dioxoisoindolin-4-yl)acetamide]
2 | 0.53 nM | 1.6 nM | 0.58 nM | 30 min | 3590 ng·h/mL | 555 min | 1340 ng·h/mL | 55.2 min | 80.2 | CCOc1nc([C@@H](CS(C)(=O)=O)N2C(=O)c3c(F)ccc(NC(C)=O)c3C2=O)ccc1OC [Compound 705, (S)—N-(2-(1-(6-ethoxy-5-methoxypyridin-2-yl)-2-(methylsulfonyl)ethyl)-7-fluoro-1,3-dioxoisoindolin-4-yl)acetamide]
3 | 1.3 nM | 4.7 nM | 3.1 nM |  |  |  |  |  |  | CCOc1nc(C(CS(C)(=O)=O)N2C(=O)c3cccc(NC(=O)CC(C)C)c3C2=O)ccc1OC (stereo not drawn) [Compound 760, N-(2-(1-(6-ethoxy-5-methoxypyridin-2-yl)-2-(methylsulfonyl)ethyl)-1,3-dioxoisoindolin-4-yl)-3-methylbutanamide]
4 | 1 nM | 2.2 nM | 1.3 nM |  |  |  |  |  |  | [2H]C([2H])([2H])Oc1ccc([C@@H](CS(C)(=O)=O)N2C(=O)c3c(F)ccc(NC(=O)C4CC4)c3C2=O)nc1OCC [Compound 767, (S)—N-(2-(1-(6-ethoxy-5-d3-methoxypyridin-2-yl)-2-(methylsulfonyl)ethyl)-7-fluoro-1,3-dioxoisoindolin-4-yl)cyclopropanecarboxamide]
5 | 202 nM | 364 nM | 295 nM |  |  |  |  |  |  | CCOc1cc(C(CS(C)(=O)=O)N2C(=O)c3cccc(NC(C)=O)c3C2=O)cnc1OC (stereo not drawn) [Compound 801, N-(2-(1-(5-ethoxy-6-methoxypyridin-3-yl)-2-(methylsulfonyl)ethyl)-1,3-dioxoisoindolin-4-yl)acetamide]
6 |  |  |  | 60 min | 785 ng·h/mL | 56.4 min | 1050 ng·h/mL | 28.2 min | 22.5 | CCOc1cc([C@@H](CS(C)(=O)=O)N2C(=O)c3cccc(NC(C)=O)c3C2=O)ccc1OC [Reference compound 2, reference compound]

The remaining lines, values behind:

Row | SMILES | IC50 (PDE4D3) | IC50 (PDE4B1) | IC50 (PDE4A1A) | Tmax [1, 2] | AUC [1, 3] | half-life [1, 4] | AUC [1, 5] | half-life [1, 6] | F [1]
7 | [2H]C([2H])([2H])Oc1ccc([C@@H](CS(C)(=O)=O)N2C(=O)c3cc(F)cc(NC(C)=O)c3C2=O)cc1OCC [Compound 203, (S)—N-(2-(l-(3-ethoxy-4-d3-methoxyphenyl)-2-(methylsulfonyl)ethyl)-6-fluoro-1,3-dioxoisoindolin-4-yl)acetamide] | 18 nM | 31 nM | 22 nM | 30 min | 250 ng·h/mL | 52.2 min | 1010 ng·h/mL | 57 min | 7.4
8 | CCOc1nc([C@@H](CS(C)(=O)=O)N2C(=O)c3cccc(NC(C)=O)c3C2=O)ccc1OC [Compound 702, (S)—N-(2-(1-(6-ethoxy-5-methoxypyridin-2-yl)-2-(methylsulfonyl)ethyl)-1,3-dioxoisoindolin-4-yl)acetamide] | 4 nM | 4.7 nM | 2.2 nM | 40.2 min | 1050 ng·h/mL | 392 min | 1330 ng·h/mL | 22.8 min | 15.5
9 | CCOc1nc([C@@H](CS(C)(=O)=O)N2C(=O)c3cc(F)cc(NC(C)=O)c3C2=O)ccc1OC [Compound 708, (S)—N-(2-(1-(6-ethoxy-5-methoxypyridin-2-yl)-2-(methylsulfonyl)ethyl)-6-fluoro-1,3-dioxoisoindolin-4-yl)acetamide] | 1.6 nM | 5.1 nM | 3.1 nM | 40.2 min | 51 ng·h/mL | 253 min | 945 ng·h/mL | 32.4 min | 1.62
10 | CCOc1nc([C@@H](CS(C)(=O)=O)N2C(=O)c3c(F)ccc(NC(=O)C4CC4)c3C2=O)ccc1OC [Compound 764, (S)—N-(2-(1-(6-ethoxy-5-methoxypyridin-2-yl)-2-(methylsulfonyl)ethyl)-7-fluoro-1,3-dioxoisoindolin-4-yl)cyclopropanecarboxamide] | 1 nM | 1.9 nM | 1.6 nM |  |  |  |  |  | 
11 | CCOc1nc([C@@H](CS(C)(=O)=O)N2C(=O)c3cccc(NC(=O)C4CC4)c3C2=O)ccc1OC [Compound 770, (S)—N-(2-(1-(6-ethoxy-5-methoxypyridin-2-yl)-2-(methylsulfonyl)ethyl)-1,3-dioxoisoindolin-4-yl)cyclopropanecarboxamide] | 1.5 nM | 1.8 nM | 1.6 nM |  |  |  |  |  | 
12 | [2H]C([2H])([2H])Oc1ccc([C@@H](CS(C)(=O)=O)N2C(=O)c3cccc(NC(=O)C4CC4)c3C2=O)nc1OCC [Compound 773, (S)—N-(2-(1-(6-ethoxy-5-d3-methoxypyridin-2-yl)-2-(methylsulfonyl)ethyl)-1,3-dioxoisoindolin-4-yl)cyclopropanecarboxamide] | 1.2 nM | 1.7 nM | 1.7 nM |  |  |  |  |  | 
13 | CCOc1cc(C(CS(C)(=O)=O)N2C(=O)c3cccc(NC(C)=O)c3C2=O)ncc1OC (stereo not drawn) [Compound 901, N-(2-(1-(4-ethoxy-5-methoxypyridin-2-yl)-2-(methylsulfonyl)ethyl)-1,3-dioxoisoindolin-4-yl)acetamide] | 248 nM | 484 nM | 411 nM |  |  |  |  |  | 
